From US7560468B2, “Substituted 1,4,8-triazaspiro[4,5]decan-2-one compounds” (Gruenenthal GmbH, priority 2004, dated 2009)

Key:
NA transporter = assay: Inhibition of noradrenalin uptake in synaptosomes; format: biochemical
5-HT transporter = molecular target: T1, 5-HT transporter (Rattus norvegicus, UniProt P31652); assay: Inhibition of 5-HT uptake in synaptosomes; format: biochemical; conditions: for inhibition at 1 µM: read-out: Uptake_5-HT, rat, 1 μM, % inhibition
T1 construct: from tissue; host or cells: rat brain synaptosomes (marrow/medulla and pons), P2 fraction
T1 sequence (P31652 whole entry): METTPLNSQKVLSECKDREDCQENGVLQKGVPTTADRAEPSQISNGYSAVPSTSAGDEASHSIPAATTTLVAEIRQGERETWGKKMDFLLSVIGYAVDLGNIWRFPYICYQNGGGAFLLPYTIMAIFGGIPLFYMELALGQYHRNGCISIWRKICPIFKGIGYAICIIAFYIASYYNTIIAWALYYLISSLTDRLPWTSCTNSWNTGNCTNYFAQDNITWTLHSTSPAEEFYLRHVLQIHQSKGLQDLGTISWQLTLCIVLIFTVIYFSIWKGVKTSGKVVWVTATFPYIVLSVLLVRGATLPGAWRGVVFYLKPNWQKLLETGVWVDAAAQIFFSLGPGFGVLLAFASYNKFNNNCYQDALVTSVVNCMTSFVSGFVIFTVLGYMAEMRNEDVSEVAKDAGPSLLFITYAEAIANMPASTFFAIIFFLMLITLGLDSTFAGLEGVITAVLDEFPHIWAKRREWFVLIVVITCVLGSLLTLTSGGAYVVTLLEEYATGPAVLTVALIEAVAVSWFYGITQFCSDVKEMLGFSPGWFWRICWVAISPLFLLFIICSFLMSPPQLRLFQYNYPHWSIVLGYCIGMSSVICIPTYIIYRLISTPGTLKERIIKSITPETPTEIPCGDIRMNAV

[1] = system: batrachotoxin (BTX) binding site of the sodium channel; assay: Affinity to the batrachotoxin (BTX) binding site of the sodium channel; conditions: rat cerebrocortex synaptosomes, [3H]-batrachotoxinin A20 α-benzoate 10 nM; test concentration not given

Compound	Uptake (NA), rat, 10 μM, % inhibition (NA transporter) [%]	Uptake_5-HT, rat, 1 μM, % inhibition (5-HT transporter) [%]	BTX Inhibition [1]	inhibition at 1 µM (5-HT transporter) [%]
O=C1NC2(CCN(S(=O)(=O)c3ccccc3F)CC2)NC1Cc1ccccc1 (stereo not shown) [Example 7, 3-Benzyl-8-(2-fluorobenzolsulfonyl)-1,4,8-triazaspiro[4,5]decan-2-one]	32	54	–	–
CSCCC1NC2(CCN(S(=O)(=O)c3ccc(C(C)=O)cc3)CC2)N(Cc2cccc(C#N)c2)C1=O (stereo not shown) [Example 10, 3-[8-(4-Acetylbenzolsulfonyl)-3-(2-methylsulfanylethyl)-2-oxo-1,4,8-triazaspiro[4,5]dec-1-ylmethyl]-benzonitrile]	39	35	–	–
COc1cc(C)c(S(=O)(=O)N2CCC3(CC2)NC(C(C)C)C(=O)N3Cc2ccccc2F)c(C)c1C (stereo not shown) [Example 11, 1-(2-Fluorobenzyl)-3-isopropyl-8-(4-methoxy-2,3,6-trimethylbenzolsulfonyl)-1,4,8-triazaspiro[4,5]decan-2-one]	37	52	–	–
C#CCN1C(=O)C(Cc2ccccc2)NC12CCN(S(=O)(=O)c1ccccc1C(F)(F)F)CC2 (stereo not shown) [Example 39, 3-Benzyl-1-prop-2-ynyl-8-(2-trifluoromethylbenzolsulfonyl)-1,4,8-triazaspiro[4,5]decan-2-one]	41	38	39	–
CCOC(=O)CN1C(=O)C(Cc2ccccc2)NC12CCN(S(=O)(=O)c1cc([N+](=O)[O-])ccc1C)CC2 (stereo not shown) [Example 46, Ethyl[3-benzyl-8-(2-methyl-5-nitrobenzolsulfonyl)-2-oxo-1,4,8-triazaspiro[4,5]dec-1-yl]-acetate]	33	90	30	–
CCOC(=O)CN1C(=O)C(Cc2ccccc2)NC12CCN(S(=O)(=O)c1ccccc1S(C)(=O)=O)CC2 (stereo not shown) [Example 47, Ethyl[3-benzyl-8-(2-methansulfonylbenzolsulfonyl)-2-oxo-1,4,8-triazaspiro[4,5]dec-1-yl]-acetate]	47	71	31	–
CCCCS(=O)(=O)N1CCC2(CC1)NCC(=O)N2Cc1ccc(C(=O)OC)cc1 [Example 53, Methyl 4-[8-(butan-1-sulfonyl)-2-oxo-1,4,8-triazaspiro[4,5]dec-1-ylmethyl]-benzoate]	30	–	31	45
CCOC(=O)CN1C(=O)C(Cc2ccccc2)NC12CCN(S(=O)(=O)c1ccccc1C(F)(F)F)CC2 (stereo not shown) [Example 65, Ethyl[3-benzyl-2-oxo-8-(2-trifluoromethylbenzolsulfonyl)-1,4,8-triazaspiro[4,5]dec-1-yl]-acetate]	33	71	51	–
CCOC(=O)CN1C(=O)C(Cc2ccccc2)NC12CCN(S(=O)(=O)Cc1ccccc1)CC2 (stereo not shown) [Example 68, Ethyl(3-benzyl-2-oxo-8-benzolmethansulfonyl-1,4,8-triazaspiro[4,5]dec-1-yl)acetate]	31	69	47	–
COc1ccccc1NC(=S)N1CCC2(CC1)NC(Cc1ccccc1)C(=O)N2Cc1ccccc1F (stereo not shown) [Example 108, 3-Benzyl-1-(2-fluorobenzyl)-2-oxo-1,4,8-triazaspiro[4,5]decan-8-thiocarboxylic acid (2-methoxy-benzol)amide]	31	86	86	–
CCCCN1C(=O)C(C(C)C)NC12CCN(C(=S)NCc1ccc(Cl)cc1)CC2 (stereo not shown) [Example 150, 1-Butyl-3-isopropyl-2-oxo-1,4,8-triazaspiro[4,5]decan-8-thiocarboxylic acid 4-chlorobenzylamide]	30	–	73	51
CSCCC1NC2(CCN(C(=S)Nc3ccccc3C)CC2)N(Cc2ccc3ccccc3c2)C1=O (stereo not shown) [Example 151, 3-(2-Methylsulfanylethyl)-1-naphthalin-2-ylmethyl-2-oxo-1,4,8-triazaspiro[4,5]decan-8-thiocarboxylic acid o-tolylamide]	42	–	84	64
CC(C)C1NC2(CCN(C(=S)Nc3c(F)c(F)c(F)c(F)c3F)CC2)N(Cc2ccccc2)C1=O (stereo not shown) [Example 154, 1-Benzyl-3-isopropyl-2-oxo-1,4,8-triazaspiro[4,5]decan-8-thiocarboxylic acid pentafluorobenzolamide-amide]	43	34	61	–
CCCCN1C(=O)C(CCSC)NC12CCN(C(=S)Nc1ccc(OCC)cc1)CC2 (stereo not shown) [Example 158, 1-Butyl-3-(2-methylsulfanylethyl)-2-oxo-1,4,8-triazaspiro[4,5]decan-8-thiocarboxylic acid (4-ethoxy-benzol)amide]	41	33	35	–
CCOC(=O)CN1C(=O)C(Cc2ccccc2)NC12CCN(C(=S)NCC1CCCCC1)CC2 (stereo not shown) [Example 159, Ethyl[3-benzyl-8-(cyclohexylmethylthiocarbamoyl)-2-oxo-1,4,8-triazaspiro[4,5]dec-1-yl]-acetate]	36	–	84	33
C#CCN1C(=O)C(CC(C)C)NC12CCN(C(=S)Nc1cccc(C(C)=O)c1)CC2 (stereo not shown) [Example 163, 3-Isobutyl-2-oxo-1-prop-2-ynyl-1,4,8-triazaspiro[4,5]decan-8-thiocarboxylic acid (3-acetylbenzol)amide]	34	38	–	–
CSCCC1NC2(CCN(C(=S)Nc3cccc(C(C)=O)c3)CC2)N(Cc2ccc3ccccc3c2)C1=O (stereo not shown) [Example 165, 3-(2-Methylsulfanylethyl)-1-naphthalin-2-ylmethyl-2-oxo-1,4,8-triazaspiro[4,5]decan-8-thiocarboxylic acid (3-acetylbenzol)amide]	48	42	64	–
Cc1cccc(NC(=S)N2CCC3(CC2)NC(Cc2ccccc2)C(=O)N3Cc2ccccc2F)c1 (stereo not shown) [Example 166, 3-Benzyl-1-(2-fluorobenzyl)-2-oxo-1,4,8-triazaspiro[4,5]decan-8-thiocarboxylic acid m-tolylamide]	39	–	85	64
CCOC(=O)NC(=S)N1CCC2(CC1)NC(Cc1ccccc1)C(=O)N2Cc1ccccc1F (stereo not shown) [Example 174, Ethyl[3-benzyl-1-(2-fluorobenzyl)-2-oxo-1,4,8-triazaspiro[4,5]decan-8-carbothioyl]-carbamate]	39	–	38	31
CCCCN1C(=O)C(CCSC)NC12CCN(C(=S)Nc1ccc(F)cc1)CC2 (stereo not shown) [Example 189, 1-Butyl-3-(2-methylsulfanylethyl)-2-oxo-1,4,8-triazaspiro[4,5]decan-8-thiocarboxylic acid (4-fluorobenzol)amide]	30	66	41	–
CSCCC1NC2(CCN(C(=O)Nc3cccc(C#N)c3)CC2)N(Cc2ccccc2)C1=O (stereo not shown) [Example 208, 1-Benzyl-3-(2-methylsulfanylethyl)-2-oxo-1,4,8-triazaspiro[4,5]decan-8-carboxylic acid (3-cyanobenzol)amide]	49	45	41	–
CCCCN1C(=O)C(CCSC)NC12CCN(C(=O)Nc1cc(OC)c(OC)c(OC)c1)CC2 (stereo not shown) [Example 210, 1-Butyl-3-(2-methylsulfanylethyl)-2-oxo-1,4,8-triazaspiro[4,5]decan-8-carboxylic acid (3,4,5-trimethoxy-benzol)amide]	36	32	44	–
CSCCC1NC2(CCN(C(=O)Nc3ccc(Cl)c(C(F)(F)F)c3)CC2)N(Cc2ccccc2)C1=O (stereo not shown) [Example 211, 1-Benzyl-3-(2-methylsulfanylethyl)-2-oxo-1,4,8-triazaspiro[4,5]decan-8-carboxylic acid (4-chloro-3-trifluoromethylbenzol)amide]	40	45	85	–
CCOc1ccc(NC(=O)N2CCC3(CC2)NC(CCSC)C(=O)N3Cc2ccccc2)cc1 (stereo not shown) [Example 213, 1-Benzyl-3-(2-methylsulfanylethyl)-2-oxo-1,4,8-triazaspiro[4,5]decan-8-carboxylic acid (4-ethoxy-benzol)amide]	37	39	41	–
CSCCC1NC2(CCN(C(=O)Nc3cccc(C(C)=O)c3)CC2)N(Cc2ccccc2)C1=O (stereo not shown) [Example 214, 1-Benzyl-3-(2-methylsulfanylethyl)-2-oxo-1,4,8-triazaspiro[4,5]decan-8-carboxylic acid (3-acetylbenzol)amide]	36	51	40	–
CCCCN1C(=O)C(C(C)C)NC12CCN(C(=O)Nc1cccc(C(=O)OCC)c1)CC2 (stereo not shown) [Example 215, Ethyl 3-[(1-butyl-3-isopropyl-2-oxo-1,4,8-triazaspiro[4,5]decan-8-carbonyl)amino]-benzoate]	33	–	51	29
CCCCN1C(=O)C(C(C)C)NC12CCN(C(=O)Nc1cc(OC)ccc1OC)CC2 (stereo not shown) [Example 216, 1-Butyl-3-isopropyl-2-oxo-1,4,8-triazaspiro[4,5]decan-8-carboxylic acid (2,5-dimethoxy-benzol)amide]	30	46	–	–
